40 molecules from the Kinase Knowledgebase extract (Sharma et al. 2016) can be followed below.

This assay addresses EGFR (human) (UniProt P00533).

Chain of EGFR (human) (P00533 whole entry, looked up): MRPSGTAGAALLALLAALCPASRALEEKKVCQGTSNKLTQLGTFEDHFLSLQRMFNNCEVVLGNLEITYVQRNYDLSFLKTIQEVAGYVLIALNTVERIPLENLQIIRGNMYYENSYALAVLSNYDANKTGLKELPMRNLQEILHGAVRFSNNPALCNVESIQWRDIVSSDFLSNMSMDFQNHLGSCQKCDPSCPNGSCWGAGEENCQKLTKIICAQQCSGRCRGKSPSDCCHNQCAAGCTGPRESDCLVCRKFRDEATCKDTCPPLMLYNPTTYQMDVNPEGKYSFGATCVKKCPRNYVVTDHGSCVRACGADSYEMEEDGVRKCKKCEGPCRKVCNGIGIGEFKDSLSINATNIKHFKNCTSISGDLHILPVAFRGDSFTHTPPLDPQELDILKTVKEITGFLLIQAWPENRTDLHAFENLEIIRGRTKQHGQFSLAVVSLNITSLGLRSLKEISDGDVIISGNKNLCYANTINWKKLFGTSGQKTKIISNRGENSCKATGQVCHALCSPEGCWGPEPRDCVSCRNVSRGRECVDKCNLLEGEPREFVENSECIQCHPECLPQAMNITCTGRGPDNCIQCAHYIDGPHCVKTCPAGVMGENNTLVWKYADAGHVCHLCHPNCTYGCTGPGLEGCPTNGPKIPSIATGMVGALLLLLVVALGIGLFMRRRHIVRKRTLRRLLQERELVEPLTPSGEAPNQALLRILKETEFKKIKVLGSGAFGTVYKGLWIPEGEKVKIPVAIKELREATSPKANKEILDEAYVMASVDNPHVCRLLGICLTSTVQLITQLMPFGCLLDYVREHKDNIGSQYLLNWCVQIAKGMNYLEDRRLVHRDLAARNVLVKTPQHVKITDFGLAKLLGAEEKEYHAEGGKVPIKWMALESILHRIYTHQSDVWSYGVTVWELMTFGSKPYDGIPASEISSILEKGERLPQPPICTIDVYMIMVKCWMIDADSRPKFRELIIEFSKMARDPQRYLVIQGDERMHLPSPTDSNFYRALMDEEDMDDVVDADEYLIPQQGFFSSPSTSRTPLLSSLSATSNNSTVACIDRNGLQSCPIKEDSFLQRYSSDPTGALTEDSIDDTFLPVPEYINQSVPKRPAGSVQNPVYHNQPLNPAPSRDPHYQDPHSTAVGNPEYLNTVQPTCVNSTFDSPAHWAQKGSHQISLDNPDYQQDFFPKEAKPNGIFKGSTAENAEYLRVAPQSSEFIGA

The term IC50 denotes the concentration that inhibits the measured activity by half. A low value points to greater potency in that assay. In turn, `C=CC(=O)N1CCC[C@@H](n2nc(-c3ccc(CNS(=O)(=O)c4ccc(OC)cc4)cc3)c3c(N)ncnc32)C1` gave a half-maximal inhibitory concentration (IC50) of 129 nM. In turn, `C=CC(=O)N1CCC[C@@H](n2nc(-c3ccc(CNS(=O)(=O)c4ccc(C)cc4F)cc3)c3c(N)ncnc32)C1` yielded an IC50 of 174 nM. Take `C=CC(=O)N1CCC[C@@H](n2nc(-c3ccc(CNS(=O)(=O)c4cc(C(F)(F)F)ccc4F)cc3)c3c(N)ncnc32)C1`: the half-maximal inhibitory concentration (IC50) amounted to 151 nM. Consider `C=CC(=O)N1CCC[C@@H](n2nc(-c3ccc(CNS(=O)(=O)c4ccc(F)cc4)cc3)c3c(N)ncnc32)C1`, for which the 50% inhibitory concentration (IC50) was determined as 363 nM.

`C=CC(=O)N1CCC[C@@H](n2nc(-c3ccc(CNS(=O)(=O)c4ccccc4C)cc3)c3c(N)ncnc32)C1` yielded a concentration for half-maximal inhibition (IC50) of 91.8 nM. Molecule `C=CC(=O)N1CCC[C@@H](n2nc(-c3ccc(CNS(=O)(=O)c4ccc5ccccc5c4)cc3)c3c(N)ncnc32)C1` displayed an IC50 of 98.7 nM.

As for `C=CC(=O)N1CCC[C@@H](n2nc(-c3ccc(CNS(=O)(=O)c4cccc(F)c4)cc3)c3c(N)ncnc32)C1`, the 50% inhibitory concentration (IC50) worked out at 81.7 nM. In the case of `C=CC(=O)N1CCC[C@@H](n2nc(-c3ccc(CNS(=O)(=O)c4ccc(OCC)cc4)cc3)c3c(N)ncnc32)C1`, the half-inhibitory concentration (IC50) was 371 nM. In the case of `C=CC(=O)N1CCC[C@@H](n2nc(-c3ccc(CNS(=O)(=O)c4cc(F)cc(F)c4)cc3)c3c(N)ncnc32)C1` it was 120 nM; in that of `C=CC(=O)N1CCC[C@@H](n2nc(-c3ccc(CNS(=O)(=O)c4cc(F)ccc4OC)cc3)c3c(N)ncnc32)C1`, 163 nM; in that of `N#CN1CCC[C@@H](n2nc(-c3ccc(CNS(=O)(=O)c4cccc(Cl)c4)cc3)c3c(N)ncnc32)C1`, 572 nM. Consider `C=CC(=O)N1CCC[C@@H](n2nc(-c3ccc(CNS(=O)(=O)c4ccc(F)cc4F)cc3)c3c(N)ncnc32)C1`, for which the IC50 was 124 nM. The value for `C=CC(=O)N1CCC[C@@H](n2nc(-c3ccc(CNS(=O)(=O)c4ccccc4C(F)(F)F)cc3)c3c(N)ncnc32)C1` was 86.3 nM; that for `C=CC(=O)N1CCC[C@@H](n2nc(-c3ccc(CNS(=O)(=O)c4ccccc4OC(F)(F)F)cc3)c3c(N)ncnc32)C1` was 452 nM. As for `C=CC(=O)N1CCC[C@@H](n2nc(-c3ccc(CNS(=O)(=O)c4cc(C)ccc4C)cc3)c3c(N)ncnc32)C1`, the IC50 was found to be 194 nM. The value for `C=CC(=O)N1CCC[C@@H](n2nc(-c3ccc(CNS(=O)(=O)c4ccc(F)c(C(F)(F)F)c4)cc3)c3c(N)ncnc32)C1` was 199 nM; that for `C=CC(=O)N1CCC[C@@H](n2nc(-c3ccc(CNS(=O)(=O)c4ccc(C)cc4C)cc3)c3c(N)ncnc32)C1` was 250 nM. The value for `C=CC(=O)N1CCC[C@@H](n2nc(-c3ccc(CNS(=O)(=O)c4cccc(Cl)c4)cc3)c3c(N)ncnc32)C1` was 45.7 nM; that for `C=CC(=O)N1CCC[C@@H](n2nc(-c3ccc(CNS(=O)(=O)c4ccc(C)cc4)cc3)c3c(N)ncnc32)C1` was 90.7 nM; that for `C=CC(=O)N1CCC[C@@H](n2nc(-c3ccc(CNS(=O)(=O)CC)cc3)c3c(N)ncnc32)C1` was 132 nM. For the molecule `C=CC(=O)N1CCC[C@@H](n2nc(-c3ccc(CNS(=O)(=O)c4cc(C)ccc4OC)cc3)c3c(N)ncnc32)C1`, the half-maximal inhibitory concentration (IC50) came to 351 nM. For the molecule `C=CC(=O)N1CCC[C@@H](n2nc(-c3ccc(CNS(=O)(=O)c4cc(C)ccc4F)cc3)c3c(N)ncnc32)C1`, the IC50 stood at 64.6 nM. In turn, `C=CC(=O)N1CCC[C@@H](n2nc(-c3ccc(CNS(=O)(=O)c4ccccc4F)cc3)c3c(N)ncnc32)C1` displayed an IC50 of 41 nM. Molecule `C=CC(=O)N1CCC[C@@H](n2nc(-c3ccc(CNS(=O)(=O)c4ccc(C)cc4OC)cc3)c3c(N)ncnc32)C1` showed an IC50 of 323 nM.

In the case of `C=CC(=O)N1CCC[C@@H](n2nc(-c3ccc(CNS(=O)(=O)c4c(F)cccc4F)cc3)c3c(N)ncnc32)C1`, the IC50 worked out at 95.7 nM.

In turn, `C=CC(=O)N1CCC[C@@H](n2nc(-c3ccc(CNS(=O)(=O)c4ccc(Cl)cc4)cc3)c3c(N)ncnc32)C1` came in with an IC50 of 60.5 nM. The value for `C=CC(=O)N1CCC[C@@H](n2nc(-c3ccc(CNS(=O)(=O)c4cc(F)cc(C(F)(F)F)c4)cc3)c3c(N)ncnc32)C1` was 97.7 nM; that for `C=CC(=O)N1CCC[C@@H](n2nc(-c3ccc(CNS(=O)(=O)C4CCCCC4)cc3)c3c(N)ncnc32)C1` was 45 nM. `C=CC(=O)N1CCC[C@@H](n2nc(-c3ccc(CNS(=O)(=O)c4ccccc4)cc3)c3c(N)ncnc32)C1` registered an IC50 of 265 nM.

In turn, `C=CC(=O)N1CCC[C@@H](n2nc(-c3ccc(CNS(=O)(=O)c4ccccc4Cl)cc3)c3c(N)ncnc32)C1` displayed a concentration for half-maximal inhibition (IC50) of 168 nM. In the case of `C=CC(=O)N1CCC[C@@H](n2nc(-c3ccc(CN(C)S(=O)(=O)c4ccccc4F)cc3)c3c(N)ncnc32)C1` it was 78.8 nM; in that of `C=CC(=O)N1CCC[C@@H](n2nc(-c3ccc(CNS(=O)(=O)c4ccc5c(c4)CCC5)cc3)c3c(N)ncnc32)C1`, 73.3 nM.

In the case of `C=CC(=O)N1CCC[C@@H](n2nc(-c3ccc(CNS(=O)(=O)c4cccc5ccccc45)cc3)c3c(N)ncnc32)C1`, the IC50 is 58.1 nM. The molecule `C=CC(=O)N1CCC[C@@H](n2nc(-c3ccc(CNS(=O)(=O)c4cccc(C)c4)cc3)c3c(N)ncnc32)C1` came in with a half-inhibitory concentration (IC50) of 86.2 nM. `C=CC(=O)N1CCC[C@@H](n2nc(-c3ccc(CNS(=O)(=O)c4cccc(OC)c4)cc3)c3c(N)ncnc32)C1` returned a concentration for half-maximal inhibition (IC50) of 290 nM. Take `C=CC(=O)N1CCC[C@@H](n2nc(-c3ccc(CNS(=O)(=O)c4cc(Cl)ccc4F)cc3)c3c(N)ncnc32)C1`: the half-maximal inhibitory concentration (IC50) was 120 nM. Molecule `C=CC(=O)N1CCC[C@@H](n2nc(-c3ccc(CNS(C)(=O)=O)cc3)c3c(N)ncnc32)C1` showed an IC50 of 112 nM.

Turning to `N#CN1CCC[C@@H](n2nc(-c3ccc(CNS(=O)(=O)c4cccc(F)c4)cc3)c3c(N)ncnc32)C1`, the IC50 came to 272 nM. Take `C=CC(=O)N1CCC[C@@H](n2nc(-c3ccc(CNS(=O)(=O)c4ccc(-c5ccccc5)cc4)cc3)c3c(N)ncnc32)C1`: the IC50 worked out at 73 nM. On to `C=CC(=O)N1CCC[C@@H](n2nc(-c3ccc(CNS(=O)(=O)CCC(F)(F)F)cc3)c3c(N)ncnc32)C1`, for which the 50% inhibitory concentration (IC50) worked out at 277 nM.
